Reference: patent US20240360165A1, “INHIBITORS OF CYCLIN DEPENDENT KINASE 7 (CDK7)” (Syros Pharmaceuticals, Inc., priority 2016, published 2024)
Where two headings read alike, the source gives them in different places.

Experiments:
[1] = target: CDK7/Cyclin H/MAT1 complex (Homo sapiens, UniProt P50613); assay: CDK7 inhibition assay (Caliper/LabChip EZ Reader kinase assay); assay type: biochemical; settings: Table 1; CDK7/Cyclin H/MAT1 6 nM, ATP 2 mM, 35 min at 27° C.
Method in brief: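 A Perkin Elmer Caliper/LabChip EZ Reader (Waltham, MA) platform served as the basis for this CDK7 kinase inhibition assay. The work was carried out by Biortus Biosciences, located in Jiangyin, Jiangsu Province, P.R. of China. Each CDK studied had its own kinase assay, and compounds were evaluated for their ability to block CDK7 activity.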

[2] = target: T1, CDK12 (aa686-1082)/Cyclin K complex (Homo sapiens, UniProt Q9NYV4); assay: CDK12 inhibition assay (Caliper/LabChip EZ Reader kinase assay); assay type: biochemical; settings: Table 1; CDK12 (aa686-1082)/Cyclin K 50 nM, ATP 2 mM, 3 hr at 27° C.
T1 construct: CDK12 (aa686-1082)/Cyclin K complex

CDK2/Cyclin E1 complex = CDK2/Cyclin E1 complex (Homo sapiens, UniProt P24941); assay: CDK2 inhibition assay (Caliper/LabChip EZ Reader kinase assay); assay type: biochemical; settings: Table 1; CDK2/Cyclin E1 0.5 nM, ATP 2 mM, 35 min at 27° C.
Method in brief: (§1)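 Activity read as fluorescent peptide conversion on a LabChip EZ Reader. For CDK2/Cyclin E1 (0.5 nM), substrate was 5-FAM-CDK7tide (2 μM) with 2 mM MgCl2; for CDK9/Cyclin T1 (8 nM), 5-FAM-CDK9tide (2 μM) with 10 mM MgCl2.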

HCC70 cells = assay: Inhibition of proliferation of HCC70 cells (CyQUANT Direct Cell Proliferation Assay, 72 hour); assay type: cell-based, human; settings: read-out: Inhibition of Proliferation of HCC70 Cells (calculated IC50)
Protocol: HCC70 cells are a cell line derived from human triple negative breast cancer. […] Known CDK inhibitors dinaciclib or N-((1S,3R)-3-((5-chloro-4-(1H-indol-3-yl) pyrimidin-2-yl)amino)cyclohexyl)-5-((E)-4-(dimethylamino)but-2-enamido)picolinamide and triptolide were used as positive controls. […] The cells were cultured at 37° C. in a humidified chamber in the presence of 5% CO2. Proliferation assays were conducted over a 72 hour time period. CyQUANT® Direct Cell Proliferation Assay (Life Technologies, Chicago, IL USA) was used to assess the anti-proliferative effects of the compounds following manufacturer's directions and utilizing the reagents supplied with the CyQUANT® Direct Cell kit.

CDK9/Cyclin T1 complex = CDK9/Cyclin T1 complex (Homo sapiens, UniProt P50750); assay: CDK9 inhibition assay (Caliper/LabChip EZ Reader kinase assay); assay type: biochemical; settings: Table 1; CDK9/Cyclin T1 8 nM, ATP 2 mM, 15 min at 27° C.
Method in brief: as §1

Chain of CDK7/Cyclin H/MAT1 complex (P50613 whole entry, species assumed): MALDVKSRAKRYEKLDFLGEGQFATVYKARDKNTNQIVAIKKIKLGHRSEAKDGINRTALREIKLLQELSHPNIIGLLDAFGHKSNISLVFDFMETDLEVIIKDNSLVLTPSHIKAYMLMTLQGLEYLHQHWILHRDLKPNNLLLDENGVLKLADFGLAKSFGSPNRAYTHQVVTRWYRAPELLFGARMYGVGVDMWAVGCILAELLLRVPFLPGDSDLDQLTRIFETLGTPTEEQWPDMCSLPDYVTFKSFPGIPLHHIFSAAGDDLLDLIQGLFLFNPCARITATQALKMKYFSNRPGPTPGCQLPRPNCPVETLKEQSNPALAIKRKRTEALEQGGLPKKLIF
Chain of CDK7/Cyclin H/MAT1 complex (P51946 whole entry partner, species assumed): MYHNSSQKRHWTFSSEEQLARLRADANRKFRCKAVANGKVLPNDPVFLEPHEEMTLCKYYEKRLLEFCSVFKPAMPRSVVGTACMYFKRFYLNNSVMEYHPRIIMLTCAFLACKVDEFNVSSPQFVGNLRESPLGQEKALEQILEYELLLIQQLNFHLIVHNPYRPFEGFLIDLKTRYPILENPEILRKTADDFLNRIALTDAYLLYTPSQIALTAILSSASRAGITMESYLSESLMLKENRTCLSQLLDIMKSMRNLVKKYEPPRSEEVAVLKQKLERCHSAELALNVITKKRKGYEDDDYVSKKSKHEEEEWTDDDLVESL
Chain of CDK7/Cyclin H/MAT1 complex (P51948 whole entry partner, species assumed): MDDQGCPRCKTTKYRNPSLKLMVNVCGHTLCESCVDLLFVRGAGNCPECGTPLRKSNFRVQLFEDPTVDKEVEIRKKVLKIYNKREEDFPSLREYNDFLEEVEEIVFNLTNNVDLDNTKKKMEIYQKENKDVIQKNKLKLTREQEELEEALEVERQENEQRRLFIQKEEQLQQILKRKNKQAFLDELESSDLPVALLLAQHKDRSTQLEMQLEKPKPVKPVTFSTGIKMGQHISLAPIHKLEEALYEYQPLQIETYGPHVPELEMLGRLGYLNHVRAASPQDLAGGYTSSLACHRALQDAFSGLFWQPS
Chain of CDK9/Cyclin T1 complex (P50750 whole entry, species assumed): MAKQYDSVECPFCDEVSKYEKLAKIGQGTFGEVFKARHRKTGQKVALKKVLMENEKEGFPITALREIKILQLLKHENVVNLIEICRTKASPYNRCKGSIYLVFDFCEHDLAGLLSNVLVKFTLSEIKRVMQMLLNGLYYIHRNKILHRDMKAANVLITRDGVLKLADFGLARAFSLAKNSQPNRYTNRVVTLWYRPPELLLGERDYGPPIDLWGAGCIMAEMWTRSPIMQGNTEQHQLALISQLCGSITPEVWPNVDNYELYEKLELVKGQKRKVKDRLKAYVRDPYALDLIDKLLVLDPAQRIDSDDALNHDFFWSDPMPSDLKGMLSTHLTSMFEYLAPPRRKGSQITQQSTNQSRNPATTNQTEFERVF
Chain of CDK9/Cyclin T1 complex (O60563 whole entry partner, species assumed): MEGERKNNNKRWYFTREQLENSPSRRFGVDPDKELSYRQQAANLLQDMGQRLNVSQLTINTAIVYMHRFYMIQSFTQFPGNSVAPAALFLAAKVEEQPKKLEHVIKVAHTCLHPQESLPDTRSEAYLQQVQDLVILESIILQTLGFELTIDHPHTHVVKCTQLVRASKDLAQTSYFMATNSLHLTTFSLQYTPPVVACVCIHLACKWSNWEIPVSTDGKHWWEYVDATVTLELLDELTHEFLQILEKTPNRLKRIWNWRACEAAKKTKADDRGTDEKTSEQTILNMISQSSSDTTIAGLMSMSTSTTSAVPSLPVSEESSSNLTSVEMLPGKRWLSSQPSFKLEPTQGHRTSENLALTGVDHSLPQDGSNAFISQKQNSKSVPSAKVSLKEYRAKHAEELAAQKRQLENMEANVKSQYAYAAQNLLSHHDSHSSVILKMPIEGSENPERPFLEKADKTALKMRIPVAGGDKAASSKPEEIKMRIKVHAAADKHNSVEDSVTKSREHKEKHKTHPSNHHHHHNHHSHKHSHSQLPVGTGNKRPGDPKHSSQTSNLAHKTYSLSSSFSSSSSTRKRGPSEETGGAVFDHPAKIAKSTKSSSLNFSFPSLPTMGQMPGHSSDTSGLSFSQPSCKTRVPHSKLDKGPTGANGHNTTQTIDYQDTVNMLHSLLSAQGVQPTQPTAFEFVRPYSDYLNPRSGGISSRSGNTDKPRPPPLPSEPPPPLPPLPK
T1 sequence (Q9NYV4 686-1082, species assumed): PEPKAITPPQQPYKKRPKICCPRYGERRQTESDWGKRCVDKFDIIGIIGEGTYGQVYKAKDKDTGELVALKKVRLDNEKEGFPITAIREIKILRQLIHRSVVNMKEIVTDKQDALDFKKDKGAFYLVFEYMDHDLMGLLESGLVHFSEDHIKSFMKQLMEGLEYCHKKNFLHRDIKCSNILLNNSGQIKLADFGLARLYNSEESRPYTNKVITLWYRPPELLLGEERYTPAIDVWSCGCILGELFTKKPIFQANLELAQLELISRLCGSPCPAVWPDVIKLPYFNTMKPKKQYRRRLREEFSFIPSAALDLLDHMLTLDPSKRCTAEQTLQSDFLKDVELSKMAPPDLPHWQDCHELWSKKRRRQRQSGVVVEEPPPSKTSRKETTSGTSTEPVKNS
T1 sequence (O75909 whole entry partner, species assumed, the tested form may be a part): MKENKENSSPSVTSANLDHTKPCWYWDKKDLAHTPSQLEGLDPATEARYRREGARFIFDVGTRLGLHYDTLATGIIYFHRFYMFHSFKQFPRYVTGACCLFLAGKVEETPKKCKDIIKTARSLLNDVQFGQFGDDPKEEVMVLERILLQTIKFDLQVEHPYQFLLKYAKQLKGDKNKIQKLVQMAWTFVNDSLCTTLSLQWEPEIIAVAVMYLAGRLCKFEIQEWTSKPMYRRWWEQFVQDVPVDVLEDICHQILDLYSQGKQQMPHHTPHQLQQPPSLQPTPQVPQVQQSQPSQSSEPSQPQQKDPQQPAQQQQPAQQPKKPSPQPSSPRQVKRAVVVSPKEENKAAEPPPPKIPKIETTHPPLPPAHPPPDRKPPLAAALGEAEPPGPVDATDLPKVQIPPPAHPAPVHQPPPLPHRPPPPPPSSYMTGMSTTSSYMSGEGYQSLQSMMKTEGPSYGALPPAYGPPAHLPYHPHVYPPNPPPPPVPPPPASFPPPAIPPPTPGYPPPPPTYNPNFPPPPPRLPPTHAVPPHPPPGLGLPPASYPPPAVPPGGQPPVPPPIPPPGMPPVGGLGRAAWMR

## Oc1ncccc1-c1ccc2c(-c3nc(N[C@H]4CCCNC4)ncc3C(F)(F)F)c[nH]c2c1 [Compound 310, 3-[3-[2-[[(3S)-3-piperidyl]amino]-5-(trifluoromethyl)pyrimidin-4-yl]-1H-indol-6-yl]pyridin-2-ol]
[1]
  IC50: < 0.02 µM
[2]
  IC50: 0.2 to 5 µM
CDK2/Cyclin E1 complex
  IC50: 0.2 to 5 µM
HCC70 cells; Homo sapiens, HCC70, 72 h
  IC50: 0.1 to 1 µM
CDK9/Cyclin T1 complex
  IC50: > 5 µM

## CCCc1cnc(N[C@H]2CCCNC2)nc1-c1c[nH]c2c(S(C)(=O)=O)c(C#N)ccc12 [Compound 367, 7-methylsulfonyl-3-[2-[[(3S)-3-piperidyl]amino]-5-propyl-pyrimidin-4-yl]-1H-indole-6-carbonitrile]
[1]
  IC50: 0.02 to 0.2 µM
[2]
  IC50: > 5 µM
CDK2/Cyclin E1 complex
  IC50: > 5 µM
HCC70 cells; Homo sapiens, HCC70, 72 h
  IC50: 1 to 5 µM
CDK9/Cyclin T1 complex
  IC50: > 5 µM

## O=S(=O)(CF)c1ccc2c(-c3nc(N[C@H]4CCCNC4)ncc3C(F)(F)F)c[nH]c2c1 [Compound 365, 4-[6-(fluoromethylsulfonyl)-1H-indol-3-yl]-N-[(3S)-3-piperidyl]-5-(trifluoromethyl)pyrimidin-2-amine]
[1]
  IC50: < 0.02 µM
[2]
  IC50: 0.2 to 5 µM
CDK2/Cyclin E1 complex
  IC50: 0.2 to 5 µM
HCC70 cells; Homo sapiens, HCC70, 72 h
  IC50: 0.1 to 1 µM
CDK9/Cyclin T1 complex
  IC50: 0.2 to 5 µM

## NC(=O)c1cccc(-c2ccc3c(-c4nc(N[C@H]5CCCNC5)ncc4C(F)(F)F)c[nH]c3c2)c1 [Compound 314]
[1]
  IC50: < 0.02 µM
[2]
  IC50: 0.2 to 5 µM
CDK2/Cyclin E1 complex
  IC50: 0.2 to 5 µM
HCC70 cells
  IC50: 0.1 to 1 µM
CDK9/Cyclin T1 complex
  IC50: 0.2 to 5 µM

## CC1CCNCC1Nc1ncc(C(F)(F)F)c(-c2c[nH]c3ccccc23)n1 (single isomer, unassigned) [Compound 372]
[1]
  IC50: 0.02 to 0.2 µM
[2]
  IC50: 0.2 to 5 µM
CDK2/Cyclin E1 complex
  IC50: 0.2 to 5 µM
HCC70 cells
  IC50: 0.1 to 1 µM
CDK9/Cyclin T1 complex
  IC50: 0.2 to 5 µM

## CCc1cnc(N[C@H]2CCCNC2)nc1-c1c[nH]c2c(S(=O)(=O)C(C)C)cccc12 [Compound 356]
[1]
  IC50: 0.02 to 0.2 µM
[2]
  IC50: > 5 µM
CDK2/Cyclin E1 complex
  IC50: > 5 µM
HCC70 cells
  IC50: 0.1 to 1 µM
CDK9/Cyclin T1 complex
  IC50: > 5 µM

## O=S(=O)(c1ccc2c(-c3nc(N[C@H]4CCCNC4)ncc3C(F)(F)F)c[nH]c2c1)C(F)F [Compound 375, 4-[6-(difluoromethylsulfonyl)-1H-indol-3-yl]-N-[(3S)-3-piperidyl]-5-(trifluoromethyl)pyrimidin-2-amine]
[1]
  IC50: < 0.02 µM
[2]
  IC50: 0.2 to 5 µM
CDK2/Cyclin E1 complex
  IC50: 0.2 to 5 µM
HCC70 cells; Homo sapiens, HCC70, 72 h
  IC50: 0.1 to 1 µM
CDK9/Cyclin T1 complex
  IC50: 0.2 to 5 µM

## Cn1cc(-c2ccc3c(-c4nc(NC5CCCNC5)ncc4C(F)(F)F)c[nH]c3c2)ccc1=O (stereo not shown) [Compound 321]
[1]
  IC50: < 0.02 µM
[2]
  IC50: 0.2 to 5 µM
CDK2/Cyclin E1 complex
  IC50: > 5 µM
HCC70 cells; Homo sapiens, HCC70, 72 h
  IC50: 0.1 to 1 µM
CDK9/Cyclin T1 complex
  IC50: > 5 µM

## CO[C@H]1CCN(C(=O)c2ccc3c(-c4nc(N[C@H]5CCCNC5)ncc4C(F)(F)F)c[nH]c3c2)C1 [Compound 280]
[1]
  IC50: 0.02 to 0.2 µM
[2]
  IC50: 0.2 to 5 µM
CDK2/Cyclin E1 complex
  IC50: > 5 µM
HCC70 cells
  IC50: 0.1 to 1 µM
CDK9/Cyclin T1 complex
  IC50: > 5 µM

## O=C(c1ccc2c(-c3nc(N[C@H]4CCCNC4)ncc3C(F)(F)F)c[nH]c2c1)N1CC[C@](O)(C(F)(F)F)C1 (single isomer, unassigned) [Compound 299]
[1]
  IC50: < 0.02 µM
[2]
  IC50: 0.2 to 5 µM
CDK2/Cyclin E1 complex
  IC50: 0.2 to 5 µM
HCC70 cells; Homo sapiens, HCC70, 72 h
  IC50: 1 to 5 µM
CDK9/Cyclin T1 complex
  IC50: 0.2 to 5 µM

## CN1CCC[C@H](Nc2ncc(C(F)(F)F)c(-c3c[nH]c4cc(S(C)(=O)=O)ccc34)n2)C1 [Compound 364, N-[(3S)-1-methyl-3-piperidyl]-4-(6-methylsulfonyl-1H-indol-3-yl)-5-(trifluoromethyl)pyrimidin-2-amine]
[1]
  IC50: 0.02 to 0.2 µM
[2]
  IC50: > 5 µM
CDK2/Cyclin E1 complex
  IC50: > 5 µM
HCC70 cells; Homo sapiens, HCC70, 72 h
  IC50: 1 to 5 µM
CDK9/Cyclin T1 complex
  IC50: > 5 µM

## [O-][S+](c1ccc2c(-c3nc(N[C@H]4CCCNC4)ncc3C(F)(F)F)c[nH]c2c1)C(F)F (stereo partly drawn) [Compound 380, 4-[6-(difluoromethylsulfinyl)-1H-indol-3-yl]-N-[(3S)-3-piperidyl]-5-(trifluoromethyl) pyrimidin-2-amine]
[1]
  IC50: < 0.02 µM
[2]
  IC50: 0.2 to 5 µM
CDK2/Cyclin E1 complex
  IC50: 0.2 to 5 µM
HCC70 cells; Homo sapiens, HCC70, 72 h
  IC50: < 0.1 µM
CDK9/Cyclin T1 complex
  IC50: 0.2 to 5 µM

## Fc1cccc(-c2ccc3c(-c4nc(N[C@H]5CCCNC5)ncc4C(F)(F)F)c[nH]c3c2)c1 [Compound 345]
[1]
  IC50: 0.2 to 5 µM
[2]
  IC50: > 5 µM
CDK2/Cyclin E1 complex
  IC50: > 5 µM
HCC70 cells; Homo sapiens, HCC70, 72 h
  IC50: 1 to 5 µM
CDK9/Cyclin T1 complex
  IC50: > 5 µM

## CCN1CCC[C@H](Nc2ncc(C(F)(F)F)c(-c3c[nH]c4cc(S(C)(=O)=O)ccc34)n2)C1 [Compound 298]
[1]
  IC50: < 0.02 µM
[2]
  IC50: 0.2 to 5 µM
CDK2/Cyclin E1 complex
  IC50: 0.2 to 5 µM
HCC70 cells; Homo sapiens, HCC70, 72 h
  IC50: 0.1 to 1 µM
CDK9/Cyclin T1 complex
  IC50: > 5 µM

## Cn1cc(-c2nc(N[C@H]3CCCNC3)ncc2C(F)(F)F)c2cccc(S(C)(=O)=O)c21 [Compound 296]
[1]
  IC50: 0.02 to 0.2 µM
[2]
  IC50: > 5 µM
CDK2/Cyclin E1 complex
  IC50: > 5 µM
HCC70 cells
  IC50: 1 to 5 µM
CDK9/Cyclin T1 complex
  IC50: > 5 µM

## FC(F)(F)c1cnc(N[C@H]2CCCNC2)nc1-c1c[nH]c2cc(-c3ccc4[nH]cnc4c3)ccc12 [Compound 313]
[1]
  IC50: < 0.02 µM
[2]
  IC50: 0.2 to 5 µM
CDK2/Cyclin E1 complex
  IC50: 0.2 to 5 µM
HCC70 cells
  IC50: 0.1 to 1 µM
CDK9/Cyclin T1 complex
  IC50: 0.2 to 5 µM

## FC(F)(F)c1cnc(N[C@H]2CCCNC2)nc1-c1c[nH]c2cc(-c3ccnc4ccccc34)ccc12 [Compound 339]
[1]
  IC50: 0.02 to 0.2 µM
[2]
  IC50: 0.2 to 5 µM
CDK2/Cyclin E1 complex
  IC50: > 5 µM
HCC70 cells
  IC50: 1 to 5 µM
CDK9/Cyclin T1 complex
  IC50: > 5 µM

## CCc1cnc(N[C@H]2CCCNC2)nc1-c1c[nH]c2c(S(C)(=O)=O)cccc12 [Compound 269, (S)-5-ethyl-4-(7-(methylsulfonyl)-1H-indol-3-yl)-N-(piperidin-3-yl)pyrimidin-2-amine]
[1]
  IC50: < 0.02 µM
[2]
  IC50: 0.2 to 5 µM
CDK2/Cyclin E1 complex
  IC50: 0.2 to 5 µM
HCC70 cells; Homo sapiens, HCC70, 72 h
  IC50: 0.1 to 1 µM
CDK9/Cyclin T1 complex
  IC50: 0.2 to 5 µM

## CC1(C)CNC[C@@H](Nc2ncc(C(F)(F)F)c(-c3c[nH]c4cc(S(C)(=O)=O)ccc34)n2)C1 [Compound 376, N-[(3S)-5,5-dimethyl-3-piperidyl]-4-(6-methylsulfonyl-1H-indol-3-yl)-5-(trifluoromethyl) pyrimidin-2-amine]
[1]
  IC50: 0.02 to 0.2 µM
[2]
  IC50: 0.2 to 5 µM
CDK2/Cyclin E1 complex
  IC50: 0.2 to 5 µM
HCC70 cells; Homo sapiens, HCC70, 72 h
  IC50: 0.1 to 1 µM
CDK9/Cyclin T1 complex
  IC50: > 5 µM

## FC(F)(F)c1cnc(N[C@H]2CCCNC2)nc1-c1c[nH]c2cc(-c3ccc4c(c3)OCCO4)ccc12 [Compound 342]
[1]
  IC50: 0.02 to 0.2 µM
[2]
  IC50: 0.2 to 5 µM
CDK2/Cyclin E1 complex
  IC50: > 5 µM
HCC70 cells
  IC50: 1 to 5 µM
CDK9/Cyclin T1 complex
  IC50: > 5 µM

## CS(=O)(=O)c1ccc2c(-c3nc(N[C@H]4CCCN(C5CC5)C4)ncc3C(F)(F)F)c[nH]c2c1 [Compound 381, N-[(3S)-1-cyclopropyl-3-piperidyl]-4-(6-methylsulfonyl-1H-indol-3-yl)-5-(trifluoromethyl) pyrimidin-2-amine]
[1]
  IC50: 0.02 to 0.2 µM
[2]
  IC50: 0.2 to 5 µM
CDK2/Cyclin E1 complex
  IC50: > 5 µM
HCC70 cells; Homo sapiens, HCC70, 72 h
  IC50: 1 to 5 µM
CDK9/Cyclin T1 complex
  IC50: > 5 µM

## O=C(c1ccc2c(-c3nc(N[C@H]4CCCNC4)ncc3C(F)(F)F)c[nH]c2c1)N1C[C@@H](O)C(F)(F)C1 [Compound 349, [(4R)-3,3-difluoro-4-hydroxy-pyrrolidin-1-yl]-[3-[2-[[(3S)-3-piperidyl]amino]-5-(trifluoromethyl)pyrimidin-4-yl]-1H-indol-6-yl] methanone]
[1]
  IC50: < 0.02 µM
[2]
  IC50: 0.2 to 5 µM
CDK2/Cyclin E1 complex
  IC50: 0.2 to 5 µM
HCC70 cells; Homo sapiens, HCC70, 72 h
  IC50: 0.1 to 1 µM
CDK9/Cyclin T1 complex
  IC50: 0.2 to 5 µM

## N#Cc1ccc2c(-c3nc(N[C@@H]4CNCC[C@H]4O)ncc3C(F)(F)F)c[nH]c2c1 [Compound 355]
[1]
  IC50: 0.02 to 0.2 µM
[2]
  IC50: 0.2 to 5 µM
CDK2/Cyclin E1 complex
  IC50: > 5 µM
HCC70 cells; Homo sapiens, HCC70, 72 h
  IC50: 0.1 to 1 µM
CDK9/Cyclin T1 complex
  IC50: > 5 µM
